# Where two headings read alike, the source gives them in different places.
# Columns and labels:
# P. falciparum 3D7 = experiment: Plasmodium falciparum growth inhibition assay (SYBR Green I), 3D7; details: 3D7, 72 h, read-out: EC50 3D7(M)
# Description: (§2) Plasmodium falciparum growth inhibition assay: Antiplasmodial EC50 results were determined using a fluorescence-based SYBR Green I assay performed using asynchronous cultures [30, 35]. […] Plates were subsequently frozen at −80 °C to facilitate lysis. […] Relative fluorescence units (RFUs) were normalized based on chloroquine-treated and no treatment controls. Serial dilutions of compounds were prepared in RPMI with final assay conditions of ≤0.2% DMSO. Each assay was conducted in triplicate with three biological replicates.
# T. gondii = T. gondii growth inhibition assay (TgRH-Luc:GFP-infected HFF cells); assay type: cell-based; details: Toxoplasma gondii, 10 µM to 156 nM, Figure 2E
# Description: T. gondii growth inhibition assays: The T. gondii inhibition assay was described previously. Briefly, HFF cells were seeded onto white-sided, clear-bottom 96 well plates, grown to confluence, and then 5000 TgRH-Luc:GFP parasites were added to each well. At 24 hpi, compounds or DMSO were added. The growth of the parasites was determined by relative luminescence at 48 hpi using Promega Bright-Glo (Promega, Madison, WI, USA) substrate. Plates were read, and the percent inhibition of parasite growth was calculated as described above. Determination of -static versus -cidal activity was conducted as indicated above, with parasite growth quantified after 48 h of infection. Each sample was run in triplicate, and each experiment was repeated three times.
# HuF fibroblast cell line = details: cited from earlier work
# C. parvum = C. parvum growth inhibition assay (Cp-NLuc-infected HCT-8 cells); assay type: cell-based, Cryptosporidium parvum; details: for EC50: Cryptosporidium parvum
# Description: C. parvum growth inhibition assays: The in vitro growth inhibition assay of C. parvum has been previously described. Briefly, clear-bottom, white-sided 96 well plates were seeded with HCT-8 cells. Once the cells reached between 50% and 75% confluency, they were infected with Cp-NLuc oocysts (10,000/well) in complete media containing 0.6% taurocholate. At 24 h post-infection (hpi), the infected cells were treated with compounds at various concentrations. DMSO was used as a vehicle control in parallel. Parasite growth was determined at 72 hpi by measuring relative luminescence units (RLUs) using Promega Nano-Glo substrate (Promega, Madison, WI, USA) and a SpectraMax® L Microplate Reader (Molecular Devices, San Jose, CA, USA). The percent inhibition of parasite growth was calculated as [(RLUDMSO − RLUcompound)/RLUDMSO] × 100.
# HepG2 human hepatocytes = experiment: HepG2 cytotoxicity assay (MTS); assay type: cell-based; details: 48 h, mean +/- SD
# Description: HepG2 cytotoxicity assay: Mammalian cell cytotoxicity was assessed in HepG2 human hepatocytes using an MTS 3-(4,5-dimethylthiazol-2-yl)-5-(3-carboxymethoxyphenyl)-2-(4-sulfophenyl)-2H-tetrazolium)-based cytotoxicity assay. For cytotoxicity testing, ∼2250 cells were seeded into each well of a 384-well microtiter plate and incubated for 24 h. Serial dilutions of the compounds were added in triplicate starting at 25 μM. Cells were further incubated for an additional 48 h at 37 °C in an atmosphere containing 5% CO2. Zero-growth control wells were incubated with 5% Triton X-100 for 5 min prior to MTS addition. Following the addition of MTS to all wells, the plates were incubated for an additional 4 h under the same environmental conditions before taking absorbance measurements. Absorbance values were recorded at 490 nm using a Synergy Neo2 multimode reader (BioTek), and values were normalized based on Triton X-100-lysed and no treatment controls. Samples were run in triplicate in each assay, and the experiments were repeated three times.
# [1] = tested on: G. lamblia WBC6 and CBG99 trophozoites; experiment: Giardia lamblia trophozoite growth inhibition assay; assay type: cell-based; details: 72 h
# Description: Compound inhibition assay against Giardia lamblia WBC6 and CBG99 trophozoites: Biological replicates of growth inhibition assays were performed using wild-type G. lamblia WBC6 and G. lamblia CBG99 trophozoites at 37 °C under reduced oxygen conditions in a sealed 0.5 mL airtight sterile tube (USA Scientific, Ocala, FL, USA), following the susceptibility assay described below. G. lamblia trophozoites were grown in TYI-S-33 medium supplemented with 10% bovine serum and 0.05 mg/mL bovine bile, as previously described. A 3-fold serial concentration of pure compounds starting at 29 µM was screened against 75,000 cells/mL of parasites in modified TYI-S-33 medium with a final dimethyl sulfoxide (DMSO) concentration of 0.14%. Metronidazole was run in parallel at a final highest concentration of 66.7 µM and 3-fold subsequent serial dilutions. The untreated negative control contained 0.14% of DMSO. Sealable test tubes filled to its maximum volume of 700 µL were used to perform this assay. The test tubes were incubated at 37 °C for 72 h. After incubation, the tubes were chilled on ice, and the reaction was transferred to 96-well plates. In the plate, 50 µL of an ATP binding luminescence marker, CellTiter-Glo (Promega, Madison, WI, USA) or 10 µL of 2.5 mg/mL d-luciferin (GoldBio, St Louis, MO, USA) was added to each well and allowed to develop at room temperature for 10 min [31, 36]. The assay was read and analyzed using an EnVision Plate Reader (Perkin Elmer, Waltham, MA, USA). Response curves and EC50 values (the concentration at which 50% of G. lamblia trophozoite growth was inhibited) were calculated using GraphPad Prism (GraphPad, LaJolla, CA, USA).
# HFF cells = experiment: HFF cytotoxicity assay; assay type: cell-based
# Description: (§1) HCT-8 and HFF cytotoxicity assays: Cytotoxicity of the compounds was determined against both confluent (the conditions of the infection assays) and growing HCT-8 and HFF host cells, as previously described. Cells were seeded into white-sided, clear-bottom 96-well plates and grown to either 40% or 100% confluency. Compounds were added to cells at various concentrations up to 100 µM in a final DMSO concentration of 0.5%. DMSO was run in parallel as a vehicle control. After 48 h, the viability of the cells was determined by either quantification of cellular ATP (Cell-Titer Glo cell viability assay; Promega, Madison WI, USA) or by MTT assay. Viability was determined 24 h after compound addition to HFF cells or 48 h after compound addition to HCT-8 cells or HepG2 cells. The percent cell growth was then calculated with the following formula: % Cell Growth = [RLUcompound/RLUDMSO] × 100. Samples were run in triplicate with two to three biological replicates.
# P. falciparum line Dd2 = experiment: Plasmodium falciparum growth inhibition assay (SYBR Green I), Dd2
# Description: as §2
# HCT-8 cytotoxicity assay = assay type: cell-based; details: human; sub-confluent (~40% confluency); read-out: EC50 cytotoxicity against sub-confluent HCT-8 cells
# Description: as §1
# HCT-8 cells = experiment: HCT-8 cytotoxicity assay; assay type: cell-based
# Description: as §1
structure (smiles),measurement,setting,value
"CO[C@H]1OC(=O)C=C2C1=C[C@H]1OC(=O)[C@@]3(C)CCC[C@@]2(C)[C@@H]13 [compound 7, oidiolactone B]",EC50,P. falciparum 3D7,1.22e-06 ± 4.19e-07 M
same,EC50,T. gondii,580 nM
same,cytotoxicity against human fibroblast,HuF fibroblast cell line,no cytotoxicity observed
same,TC50 HuF (sub-confluent),"HuF fibroblast cell line; sub-confluent, ref Rusman et al. 2020 [25]",21400 ± 900 nM
same,increase in inhibitory activity against C. parvum versus oidiolactone A,"C. parvum; 7,8 double bond vs. 7α,8α-epoxy group",2 fold
same,EC50,"C. parvum; HCT-8, abstract, read-out: EC50 against C. parvum",240 nM
same,EC50,"C. parvum; Cp-NLuc-infected HCT-8 cells, 7.5 µM to 117 nM, Figure 2E, read-out: C. parvum EC50",238 nM
same,TC50 HepG2,HepG2 human hepatocytes,10300 ± 2180 nM
same,activity against G. lamblia (no activity up to),[1],> 29 µM
same,TC50 HFF (confluent),HFF cells; confluent,> 30000 nM
same,toxicity to host cells (no toxicity up to),"HFF cells; confluent HFF, conditions of the infection assay, 24 h, cellular ATP",> 100 µM
same,cytotoxicity against sub-confluent HFF,HFF cells; sub-confluent,no cytotoxicity observed
same,SI: selectivity index=EC50 HepG2/ EC50 compound,P. falciparum line Dd2,11
same,EC50,"P. falciparum line Dd2; Plasmodium falciparum, DD2, 72 h, read-out: EC50 Dd2 (M)",9.83e-07 ± 1.11e-07 M
same,EC50 at 48 h,HCT-8 cytotoxicity assay,2100 nM
same,TC50 HCT-8 (confluent),HCT-8 cells; confluent,> 30000 nM
same,toxicity to host cells (no toxicity up to),"HCT-8 cells; confluent HCT-8, conditions of the infection assay, 48 h, cellular ATP",> 100 µM
same,more cytotoxic towards host HCT-8 cells versus oidiolactone A,HCT-8 cells; non-confluent conditions,~ 15 x
same,TC50 HCT-8 (sub-confluent),HCT-8 cells; sub-confluent,2100 ± 300 nM
